Laboratory results published in ChEMBL document CHEMBL5584334, “Discovery of a Covalent Inhibitor of Pro-Caspase-1 Zymogen Blocking NLRP3 Inflammasome Activation and Pyroptosis” (J Med Chem, 2024).
Activity calls are given as the source filed them. The calls are words filed in the database; no cut-off is given here. Residues, ends and D or L forms follow the SMILES beside them. *: point of attachment. Cbz = O=C(OCc1ccccc1)*; CH2F = FC*

What was measured:
Caspase-1 = target: T1, Caspase-1 (Homo sapiens, UniProt P29466); experiment: Inhibition of recombinant human caspase-1 expressed in Escherichia coli BL21 cells using […] as substrate incubated for 30 mins
T1 sequence (P29466 whole entry): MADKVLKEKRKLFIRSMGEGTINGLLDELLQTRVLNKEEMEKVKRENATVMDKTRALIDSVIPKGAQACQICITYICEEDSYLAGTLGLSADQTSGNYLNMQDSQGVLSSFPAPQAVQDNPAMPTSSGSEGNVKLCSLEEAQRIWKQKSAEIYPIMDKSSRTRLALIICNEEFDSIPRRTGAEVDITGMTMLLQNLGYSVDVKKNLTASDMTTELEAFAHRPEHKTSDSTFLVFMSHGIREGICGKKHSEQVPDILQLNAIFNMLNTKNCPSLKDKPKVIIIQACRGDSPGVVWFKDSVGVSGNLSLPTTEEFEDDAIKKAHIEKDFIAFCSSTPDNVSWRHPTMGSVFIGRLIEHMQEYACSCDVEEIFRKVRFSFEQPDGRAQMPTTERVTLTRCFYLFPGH

Caspase-1 (Homo sapiens) [1] = target: T2, Caspase-1 (Homo sapiens) (UniProt P29466); experiment: Inhibition of recombinant human caspase-1 expressed in Escherichia coli BL21 cells assessed as remaining activity at 100 uM using […] as substrate incubated for 30 mins relative to control
T2 sequence (whole entry): T1 sequence (P29466 whole entry)

Caspase-1 (Homo sapiens) [2] = target: T2, Caspase-1 (Homo sapiens); experiment: Inhibition of recombinant human caspase-1 expressed in Escherichia coli BL21 cells assessed as remaining activity at 10 uM using […] as substrate incubated for 30 mins relative to control
Caspase-1 (Homo sapiens) [3] = target: T2, Caspase-1 (Homo sapiens); experiment: Inhibition of recombinant human caspase-1 expressed in Escherichia coli BL21 cells at 5 to 50 uM using […] as substrate incubated for 30 mins; settings: dose 5-50 µM
[4] = target: NACHT, LRR and PYD domains-containing protein 3 (Mus musculus) (UniProt Q8R4B8); experiment: Inhibition of NLRP3 inflammasome activation activation in LPS/nigericin stimulated mouse J774.A1 cells assessed as reduction in IL-1beta production pretreated with LPS for 3 hrs prior to compound addition for 30 mins followed by nigericin addition and measured after 45 mins by ELISA; assay type: cell-based; settings: dose 0.001-2000 nM, time 75.0 min
Caspase-7 (Mus musculus) = target: T3, Caspase-7 (Mus musculus) (UniProt P97864); experiment: Inhibition of cisplatin induced caspase-7 activation in mouse J774.A1 cells at 1 uM preincubated for 30 mins followed by cisplatin addition and incubated overnight; assay type: cell-based
T3 sequence (whole entry): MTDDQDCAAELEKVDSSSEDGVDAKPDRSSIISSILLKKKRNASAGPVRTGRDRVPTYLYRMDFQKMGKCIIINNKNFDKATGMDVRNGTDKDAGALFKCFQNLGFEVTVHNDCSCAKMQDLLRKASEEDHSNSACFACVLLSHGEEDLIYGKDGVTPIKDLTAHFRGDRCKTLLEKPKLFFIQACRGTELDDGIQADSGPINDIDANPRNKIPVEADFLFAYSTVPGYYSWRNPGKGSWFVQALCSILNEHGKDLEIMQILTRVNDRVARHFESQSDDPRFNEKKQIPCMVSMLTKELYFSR

Caspase-3 (Mus musculus) = target: T4, Caspase-3 (Mus musculus) (UniProt P70677); experiment: Inhibition of cisplatin induced caspase-3 activation in mouse J774.A1 cells at 1 uM preincubated for 30 mins followed by cisplatin addition and incubated overnight; assay type: cell-based
T4 sequence (whole entry): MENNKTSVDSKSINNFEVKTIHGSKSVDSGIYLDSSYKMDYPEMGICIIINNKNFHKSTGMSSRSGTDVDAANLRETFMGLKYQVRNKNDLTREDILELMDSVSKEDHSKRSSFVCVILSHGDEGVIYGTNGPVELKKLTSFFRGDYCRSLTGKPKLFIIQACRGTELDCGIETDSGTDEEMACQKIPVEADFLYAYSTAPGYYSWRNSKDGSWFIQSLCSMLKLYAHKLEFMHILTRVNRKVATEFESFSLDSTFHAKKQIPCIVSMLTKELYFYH

J774.A1 [5] = experiment: Binding affinity to pro-caspase 1 in mouse J774.A1 cell lysates at 1 to 2 uM incubated for 2 hrs by pull-down assay; assay type: subcellular; settings: dose 1-2 µM
J774.A1 [6] = experiment: Binding affinity to pro-caspase 1 in mouse J774.A1 cell lysates at 1 to 2 uM incubated for 2 hrs in presence of 1'-benzyl 6-(tert-butyl) (1R,4R,6R)-4-isothiocyanato-5'-methoxy-2'-oxospiro[cyclohexane-1,3'-indolin]-2-ene-1',6-dicarboxylate by pull-down assay; assay type: subcellular; settings: dose 1-2 µM
J774.A1 [7] = experiment: Inhibition of IL-1beta release in mouse J774.A1 cells at 20 uM pretreated with LPS for 3 hrs followed by compound addition for 30 mins and nigericin stimulation for 45 mins; assay type: functional, cell-based; settings: time 75.0 min
J774.A1 [8] = experiment: Binding affinity to pro-caspase 1 in mouse J774.A1 cells at 50 uM pretreated with LPS for 3 hrs and nigericin stimulation for 45 mins followed by compound addition by pull-down assay; assay type: cell-based
[9] = target: Thioredoxin (Mus musculus) (UniProt P10639); experiment: Binding affinity to Txn in mouse J774.A1 cells lysate by mass-spectrophotometric assay; assay type: subcellular
[10] = target: NFU1 iron-sulfur cluster scaffold homolog, mitochondrial (Mus musculus) (UniProt Q9QZ23); experiment: Binding affinity to Nfu1 in mouse J774.A1 cells lysate by mass-spectrophotometric assay; assay type: subcellular
Caspase-1 (Homo sapiens) [11] = target: T2, Caspase-1 (Homo sapiens); experiment: Inhibition of caspase-1 activity (unknown origin); settings: dose 50-300 µM
J774.A1 [12] = experiment: Binding affinity to pro-caspase 1 in mouse J774.A1 cells by Western blotting analysis; assay type: cell-based

NACHT, LRR and PYD domains-containing protein 3 (Mus musculus), sequence (Q8R4B8 whole entry, the tested form may be a part): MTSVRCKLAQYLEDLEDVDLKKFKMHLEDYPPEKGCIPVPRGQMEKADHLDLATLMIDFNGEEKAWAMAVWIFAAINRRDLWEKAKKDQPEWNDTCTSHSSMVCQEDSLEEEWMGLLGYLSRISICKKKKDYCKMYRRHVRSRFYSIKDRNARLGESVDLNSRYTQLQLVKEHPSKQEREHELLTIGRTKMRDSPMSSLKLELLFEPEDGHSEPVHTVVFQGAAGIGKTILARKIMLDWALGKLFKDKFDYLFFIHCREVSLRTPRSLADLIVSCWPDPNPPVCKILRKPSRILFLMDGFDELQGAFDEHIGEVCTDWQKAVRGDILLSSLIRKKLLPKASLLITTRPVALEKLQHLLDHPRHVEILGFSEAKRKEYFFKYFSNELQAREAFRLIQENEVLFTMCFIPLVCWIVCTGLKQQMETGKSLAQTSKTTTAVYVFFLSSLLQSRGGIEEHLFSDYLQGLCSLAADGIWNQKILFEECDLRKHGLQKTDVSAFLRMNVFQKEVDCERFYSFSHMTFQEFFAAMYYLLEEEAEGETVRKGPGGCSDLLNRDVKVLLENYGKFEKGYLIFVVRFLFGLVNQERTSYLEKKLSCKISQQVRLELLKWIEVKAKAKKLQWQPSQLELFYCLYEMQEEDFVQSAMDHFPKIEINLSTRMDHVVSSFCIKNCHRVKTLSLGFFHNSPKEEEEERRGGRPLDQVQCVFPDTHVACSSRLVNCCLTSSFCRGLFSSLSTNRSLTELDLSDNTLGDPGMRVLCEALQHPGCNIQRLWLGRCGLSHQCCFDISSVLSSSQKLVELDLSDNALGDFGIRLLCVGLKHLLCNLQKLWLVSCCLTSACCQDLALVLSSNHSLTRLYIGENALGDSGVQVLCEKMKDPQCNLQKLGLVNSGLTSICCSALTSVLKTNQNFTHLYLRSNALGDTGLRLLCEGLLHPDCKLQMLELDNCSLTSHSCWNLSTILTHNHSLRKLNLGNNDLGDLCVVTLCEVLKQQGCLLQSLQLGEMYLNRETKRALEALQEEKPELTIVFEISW
Thioredoxin (Mus musculus), sequence (P10639 whole entry): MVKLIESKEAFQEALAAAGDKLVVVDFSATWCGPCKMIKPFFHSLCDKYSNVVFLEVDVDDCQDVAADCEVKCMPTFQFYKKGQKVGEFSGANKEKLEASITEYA
NFU1 iron-sulfur cluster scaffold homolog, mitochondrial (Mus musculus), sequence (Q9QZ23 whole entry): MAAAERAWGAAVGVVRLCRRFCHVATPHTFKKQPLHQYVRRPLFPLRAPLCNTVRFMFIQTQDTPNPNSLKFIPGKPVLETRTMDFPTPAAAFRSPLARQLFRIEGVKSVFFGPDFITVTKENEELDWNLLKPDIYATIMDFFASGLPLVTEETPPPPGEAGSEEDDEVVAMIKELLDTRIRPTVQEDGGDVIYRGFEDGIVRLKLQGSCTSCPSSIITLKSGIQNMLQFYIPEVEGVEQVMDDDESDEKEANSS

Compound	IC50 (Caspase-1) [µM]	Activity (Caspase-1 (Homo sapiens) [1]) [%]	Activity (Caspase-1 (Homo sapiens) [2]) [%]	further results
CC(C)(C)OC(=O)[C@@H]1C[C@@H](N=C=S)C=C[C@@]12C(=O)N(C(=O)OCc1ccccc1)c1cc(Br)ccc12	15.4	20	71	
CC(C)(C)OC(=O)[C@@H]1C[C@@H](N=C=S)C=C[C@@]12C(=O)N(C(=O)OCc1ccccc1)c1ccccc12	37.6	15	76	
O=C(c1ccccc1)[C@@H]1C[C@@H](N=C=S)C=C[C@@]12C(=O)N(C(=O)OCc1ccccc1)c1ccccc12	26.2	15	56	
COc1ccc2c(c1)[C@]1(C=C[C@@H](N=C=S)C[C@H]1C(=O)OC(C)(C)C)C(=O)N2C(=O)OCc1ccccc1				inhibition (active/not active) (Caspase-1 (Homo sapiens) [3]): Active
CC(C)OC(=O)[C@@H]1C[C@@H](N=C=S)C=C[C@@]12C(=O)N(C(=O)OCc1ccccc1)c1ccccc12	72.9	19	104	
S=C=NCc1ccccc1				inhibition [4]: Dose-Dependent Effect; inhibition (active/not active) (Caspase-1 (Homo sapiens) [3]): Active
CC(C)(C)OC(=O)[C@@H]1C[C@@H](NC(=S)NN)C=C[C@@]12C(=O)N(C(=O)OCc1ccccc1)c1ccccc12	> 100	84	107	
COC(=O)C[C@H](NC(=O)[C@H](C)NC(=O)[C@@H](NC(=O)OCc1ccccc1)C(C)C)C(=O)CF (Cbz-Val-Ala-Asp(OMe)-CH2F)				inhibition (Caspase-7 (Mus musculus)): Active; inhibition (Caspase-3 (Mus musculus)): Active
CC(C)(C)OC(=O)[C@@H]1C[C@@H](N=C=S)C=C[C@@]12C(=O)N(C(=O)OCc1ccccc1)c1ccc(Cl)cc12	84.8	24	77	
CC1=C[C@@]2(C(=O)N(C(=O)OCc3ccccc3)c3ccccc32)[C@H](C(=O)OC(C)(C)C)C[C@@]1(C)N=C=S	> 100	91	103	
CC(C)(C)OC(=O)[C@@H]1C[C@@H](N=C=S)C=C[C@@]12C(=O)N(C(=O)OCc1ccccc1)c1ccc(F)cc12	80.7	17	81	
COc1ccc2c(c1)[C@@]1(C(=O)N2C(=O)OCc2ccccc2)[C@@H](SC#N)C=CC[C@H]1C(=O)OC(C)(C)C				inhibition (active/not active) (Caspase-1 (Homo sapiens) [3]): inactive
O=C(Oc1ccccc1)[C@@H]1C[C@@H](N=C=S)C=C[C@@]12C(=O)N(C(=O)OCc1ccccc1)c1ccccc12	> 100	56	101	
CC(C)(C)OC(=O)[C@@H]1C[C@@H](NC(=S)Nc2ccccc2)C=C[C@@]12C(=O)N(C(=O)OCc1ccccc1)c1ccccc12	> 100	84	112	
CC(C)(C)OC(=O)[C@@H]1C[C@@H](N=C=S)C=C[C@@]12C(=O)N(C(=O)OCc1ccccc1)c1ccc(I)cc12	> 100	61	88	
CC(C)(C)OC(=O)[C@@H]1C[C@@H](N=C=S)C=C[C@@]12C(=O)N(C(=O)OCc1ccccc1)c1c(F)cccc12	79.1	13	85	

Compound	IC50 (Caspase-1) [µM]	Activity (Caspase-1 (Homo sapiens) [1]) [%]	Activity (Caspase-1 (Homo sapiens) [2]) [%]	further results
CC(C)(C)OC(=O)[C@@H]1C[C@@H](N=C=S)C=C[C@@]12C(=O)N(C(=O)OCC1c3ccccc3-c3ccccc31)c1ccccc12	75.7	24	90	
S=C=NCCc1ccccc1				inhibition [4]: Dose-Dependent Effect; inhibition (active/not active) (Caspase-1 (Homo sapiens) [3]): inactive
COC(=O)[C@@H]1C[C@@H](N=C=S)C=C[C@@]12C(=O)N(C(=O)OCc1ccccc1)c1ccccc12	29.4	9	78	
CC(C)(C)OC(=O)[C@@H]1C[C@@H](N=C=S)C=C[C@@]12C(=O)N(C(=O)OCc1ccccc1)c1ccc(Br)cc12	89.8	31	92	
C[S+]([O-])CCCCN=C=S (stereo unspecified)				inhibition [4]: Dose-Dependent Effect; inhibition (active/not active) (Caspase-1 (Homo sapiens) [3]): inactive
COc1ccc2c(c1)[C@]1(C=C[C@H](N=C=S)C[C@H]1C(=O)OC(C)(C)C)C(=O)N2	40.5	10	75	
CC(C)(C)OC(=O)[C@@H]1C[C@@H](N=C=S)C=C[C@@]12C(=O)Nc1ccc(NC(=O)CCCC[C@@H]3SC[C@@H]4NC(=O)N[C@@H]43)cc12				Activity (J774.A1 [5]): Active; Activity (J774.A1 [6]): inactive; inhibition (J774.A1 [7]): Active; Activity (J774.A1 [8]): Active; Activity [9]: Active; Activity [10]: Active; inhibition (Caspase-1 (Homo sapiens) [11]): Dose-Dependent Effect; Activity (J774.A1 [12]): Active
CC(C)(C)OC(=O)[C@@H]1C[C@@H](N=C=S)C=C[C@@]12C(=O)N(C(=O)OCc1ccccc1)c1cc(F)c(F)cc12	43.6	21	73	
CCC1=C[C@@]2(C(=O)N(C(=O)OCc3ccccc3)c3ccccc32)[C@H](C(=O)OC(C)(C)C)C[C@@]1(CC)N=C=S	> 100	90	108	
CC(C)(C)OC(=O)[C@@H]1CC=C[C@@H](SC#N)[C@@]12C(=O)Nc1ccc(NC(=O)CCCC[C@@H]3SC[C@@H]4NC(=O)N[C@@H]43)cc12				inhibition (Caspase-1 (Homo sapiens) [11]): inactive
COc1ccc2c(c1)[C@@]1(C=C[C@@H](N=C=S)C[C@@H]1C(=O)OC(C)(C)C)C(=O)N2C(=O)OCc1ccccc1				inhibition (active/not active) (Caspase-1 (Homo sapiens) [3]): Active
O=C(OCc1ccccc1)[C@@H]1C[C@@H](N=C=S)C=C[C@@]12C(=O)N(C(=O)OCc1ccccc1)c1ccccc12	85.5	42	104	
Cc1ccc2c(c1)[C@]1(C=C[C@H](N=C=S)C[C@H]1C(=O)OC(C)(C)C)C(=O)N2C(=O)OCc1ccccc1	28.4	15	68	
COC(=O)N1C(=O)[C@@]2(C=C[C@H](N=C=S)C[C@H]2C(=O)OC(C)(C)C)c2ccccc21	58.2	34	68	
CC1=C[C@@]2(C(=O)N(C(=O)OCc3ccccc3)c3ccccc32)[C@H](C(=O)OC(C)(C)C)C[C@H]1N=C=S	> 100	84	93	
